Laboratory results as given in patent publication US12421210B2, “Fused bicyclic heterocycles as therapeutic agents” (NEW YORK UNIVERSITY, priority 2018, dated 2025).

These compounds were tested against human NAMPT enzyme (His-hNAMPT) (Homo sapiens (Human), UniProt P43490) (assay: NAMPT enzymatic inhibition assay (fluorescence, NADH product)). Details: [BPS]; read-out: NAMPT IC50 (μM) [BPS].
Type: biochemical

Chain of human NAMPT enzyme (His-hNAMPT) (P43490 whole entry): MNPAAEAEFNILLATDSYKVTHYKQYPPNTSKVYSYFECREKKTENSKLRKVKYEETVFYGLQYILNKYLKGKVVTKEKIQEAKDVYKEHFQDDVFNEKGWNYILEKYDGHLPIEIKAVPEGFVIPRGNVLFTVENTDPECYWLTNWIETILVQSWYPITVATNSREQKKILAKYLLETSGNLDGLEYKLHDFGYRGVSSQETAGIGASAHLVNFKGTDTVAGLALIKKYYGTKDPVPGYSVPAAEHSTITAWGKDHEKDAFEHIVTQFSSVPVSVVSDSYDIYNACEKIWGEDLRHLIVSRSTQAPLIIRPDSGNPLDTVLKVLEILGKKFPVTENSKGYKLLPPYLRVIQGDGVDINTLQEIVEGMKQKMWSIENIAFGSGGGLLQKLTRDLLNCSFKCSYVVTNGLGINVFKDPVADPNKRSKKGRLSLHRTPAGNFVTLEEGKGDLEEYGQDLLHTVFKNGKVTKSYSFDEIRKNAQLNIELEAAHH

| IC50 | SMILES |
| --- | --- |
| 0.01 to 0.49 µM | Nc1ccc(/C=C/C(=O)NCC[C@@H]2[C@H]3CN(C(=O)c4cccc(C(=O)O)c4)C[C@@H]23)cn1 [Example 178, 3-((1R,5S,6s)-6-(2-((E)-3-(6-aminopyridin-3-yl)acrylamido)ethyl)-3-azabicyclo[3.1.0]hexane-3-carbonyl)benzoic acid] |
| 1 to 29 µM | Nc1ccc(/C=C/C(=O)NCC[C@@H]2[C@H]3CN(C(=O)c4ccc(C(=O)O)cc4)C[C@@H]23)cn1 [Example 179, 4-((1R,5S,6s)-6-(2-((E)-3-(6-aminopyridin-3-yl)acrylamido)ethyl)-3-azabicyclo[3.1.0]hexane-3-carbonyl)benzoic acid] |
| 0.5 to 0.99 µM | O=C(O)c1cccc(C(=O)N2C[C@@H]3[C@@H](CCNC(=O)c4cc5ccncc5o4)[C@@H]3C2)c1 [Example 180, 3-((1R,5S,6s)-6-(2-(furo[2,3-c]pyridine-2-carboxamido)ethyl)-3-azabicyclo[3.1.0]hexane-3-carbonyl)benzoic acid] |
| 1 to 29 µM | O=C(O)c1cccc(C(=O)N2C[C@@H]3[C@@H](CCNC(=O)c4ccc5nccn5c4)[C@@H]3C2)c1 [Example 181, 3-((1R,5S,6s)-6-(2-(imidazo[1,2-a]pyridine-6-carboxamido)ethyl)-3-azabicyclo[3.1.0]hexane-3-carbonyl)benzoic acid] |

Same assay, conditions: [HDB]; read-out: NAMPT IC50 (μM) [HDB]

| SMILES | IC50 |
| --- | --- |
| O=C(/C=C/c1cccnc1)NCC[C@@H]1[C@H]2CN(c3ccc4c(c3)C(=O)NC4)C[C@@H]12 [Example 156, (E)-N-(2-((1R,5S,6s)-3-(3-oxoisoindolin-5-yl)-3-azabicyclo[3.1.0]hexan-6-yl)ethyl)-3-(pyridin-3-yl)acrylamide] | 0.01 to 0.49 µM |
| O=C(/C=C/c1cccnc1)NCC[C@@H]1[C@H]2CN(c3ccc4c(c3)CNC4=O)C[C@@H]12 [Example 157, (E)-N-(2-((1R,5S,6s)-3-(1-oxoisoindolin-5-yl)-3-azabicyclo[3.1.0]hexan-6-yl)ethyl)-3-(pyridin-3-yl)acrylamide] | < 0.01 µM |
| CC(C)(C)Oc1cccc(N2C[C@@H]3[C@@H](CCNC(=O)/C=C/c4cccnc4)[C@@H]3C2)c1 [Example 158, (E)-N-(2-((1R,5S,6s)-3-(3-(tert-butoxy)phenyl)-3-azabicyclo[3.1.0]hexan-6-yl)ethyl)-3-(pyridin-3-yl)acrylamide] | < 0.01 µM |
| O=C(/C=C/c1cccnc1)NCC[C@@H]1[C@H]2CN(c3ccnc(C(F)(F)F)c3)C[C@@H]12 [Example 159, (E)-3-(pyridin-3-yl)-N-(2-((1R,5S,6s)-3-(2-(trifluoromethyl)pyridin-4-yl)-3-azabicyclo[3.1.0]hexan-6-yl)ethyl)acrylamide] | < 0.01 µM |
| O=C(/C=C/c1cccnc1)NCC[C@@H]1[C@H]2CN(c3ccnc(Cl)c3)C[C@@H]12 [Example 160, (E)-N-(2-((1R,5S,6s)-3-(2-chloropyridin-4-yl)-3-azabicyclo[3.1.0]hexan-6-yl)ethyl)-3-(pyridin-3-yl)acrylamide] | < 0.01 µM |
| COc1cc(N2C[C@@H]3[C@@H](CCNC(=O)/C=C/c4cccnc4)[C@@H]3C2)ccn1 [Example 161, (E)-N-(2-((1R,5S,6S)-3-(2-methoxypyridin-4-yl)-3-azabicyclo[3.1.0]hexan-6-yl)ethyl)-3-(pyridin-3-yl)acrylamide] | 0.01 to 0.49 µM |
| O=C(/C=C/c1cccnc1)NCC[C@@H]1[C@H]2CN(c3ncc(C(F)(F)F)cn3)C[C@@H]12 [Example 162, (E)-3-(pyridin-3-yl)-N-(2-((1R,5S,6s)-3-(5-(trifluoromethyl)pyrimidin-2-yl)-3-azabicyclo[3.1.0]hexan-6-yl)ethyl)acrylamide] | 0.01 to 0.49 µM |
| O=C(/C=C/c1cccnc1)NCC[C@@H]1[C@H]2CN(c3ncc(F)cn3)C[C@@H]12 [Example 163, (E)-N-(2-((1R,5S,6s)-3-(5-fluoropyrimidin-2-yl)-3-azabicyclo[3.1.0]hexan-6-yl)ethyl)-3-(pyridin-3-yl)acrylamide] | 0.01 to 0.49 µM |
| O=C(/C=C/c1cccnc1)NCC[C@@H]1[C@H]2CN(c3ncc(Cl)cn3)C[C@@H]12 [Example 164, (E)-N-(2-((1R,5S,6s)-3-(5-chloropyrimidin-2-yl)-3-azabicyclo[3.1.0]hexan-6-yl)ethyl)-3-(pyridin-3-yl)acrylamide] | 0.01 to 0.49 µM |
| Nc1ccc(/C=C/C(=O)NCC[C@@H]2[C@H]3CN(c4ncc5ccccc5n4)C[C@@H]23)cn1 [Example 165, (E)-3-(6-aminopyridin-3-yl)-N-(2-((1R,5S,6s)-3-(quinazolin-2-yl)-3-azabicyclo[3.1.0]hexan-6-yl)ethyl)acrylamide] | 0.01 to 0.49 µM |
| O=C(/C=C/c1cccnc1)NCC[C@@H]1[C@H]2CN(c3ncc4c(n3)CCOC4)C[C@@H]12 [Example 166, (E)-N-(2-((1R,5S,6s)-3-(7,8-dihydro-5H-pyrano[4,3-d]pyrimidin-2-yl)-3-azabicyclo[3.1.0]hexan-6-yl)ethyl)-3-(pyridin-3-yl)acrylamide] | 0.01 to 0.49 µM |
| O=C(/C=C/c1cccnc1)NCC[C@@H]1[C@H]2CN(c3ncc4cc(F)ccc4n3)C[C@@H]12 [Example 167, (E)-N-(2-((1R,5S,6s)-3-(6-fluoroquinazolin-2-yl)-3-azabicyclo[3.1.0]hexan-6-yl)ethyl)-3-(pyridin-3-yl)acrylamide] | 0.01 to 0.49 µM |
| O=C(/C=C/c1cccnc1)NCC[C@@H]1[C@H]2CN(c3ccncn3)C[C@@H]12 [Example 168, (E)-3-(pyridin-3-yl)-N-(2-((1R,5S,6s)-3-(pyrimidin-4-yl)-3-azabicyclo[3.1.0]hexan-6-yl)ethyl)acrylamide] | 0.01 to 0.49 µM |
| O=C(/C=C/c1cccnc1)NCC[C@@H]1[C@H]2CN(c3nccc(C(F)(F)F)n3)C[C@@H]12 [Example 169, (E)-3-(pyridin-3-yl)-N-(2-((1R,5S,6s)-3-(4-(trifluoromethyl)pyrimidin-2-yl)-3-azabicyclo[3.1.0]hexan-6-yl)ethyl)acrylamide] | < 0.01 µM |
| O=C(/C=C/c1cccnc1)NCC[C@@H]1[C@H]2CN(c3ncncn3)C[C@@H]12 [Example 170, (E)-N-(2-((1R,5S,6s)-3-(1,3,5-triazin-2-yl)-3-azabicyclo[3.1.0]hexan-6-yl)ethyl)-3-(pyridin-3-yl)acrylamide] | 0.01 to 0.49 µM |
| NC(=O)c1ccnc(N2C[C@@H]3[C@@H](CCNC(=O)/C=C/c4cccnc4)[C@@H]3C2)n1 [Example 171, 2-((1R,5S,6s)-6-(2-((E)-3-(pyridin-3-yl)acrylamido)ethyl)-3-azabicyclo[3.1.0]hexan-3-yl)pyrimidine-4-carboxamide] | < 0.01 µM |
| O=C(/C=C/c1cccnc1)NCC[C@@H]1[C@H]2CN(c3nc(Cl)ncc3F)C[C@@H]12 [Example 172, (E)-N-(2-((1R,5S,6s)-3-(2-chloro-5-fluoropyrimidin-4-yl)-3-azabicyclo[3.1.0]hexan-6-yl)ethyl)-3-(pyridin-3-yl)acrylamide] | < 0.01 µM |
| COc1nc(N2C[C@@H]3[C@@H](CCNC(=O)/C=C/c4cccnc4)[C@@H]3C2)ncc1F [Example 173, (E)-N-(2-((1R,5S,6s)-3-(5-fluoro-4-methoxypyrimidin-2-yl)-3-azabicyclo[3.1.0]hexan-6-yl)ethyl)-3-(pyridin-3-yl)acrylamide] | 0.01 to 0.49 µM |

Results, then the compound that gave them:

| IC50 | SMILES |
| --- | --- |
| < 0.01 µM | NC(=O)c1cnc(N2C[C@@H]3[C@@H](CCNC(=O)/C=C/c4cccnc4)[C@@H]3C2)nc1 [Example 174, 2-((1R,5S,6s)-6-(2-((E)-3-(pyridin-3-yl)acrylamido)ethyl)-3-azabicyclo[3.1.0]hexan-3-yl)pyrimidine-5-carboxamide] |
| 0.01 to 0.49 µM | O=C(/C=C/c1cccnc1)NCC[C@@H]1[C@H]2CN(c3nc(C(F)(F)F)cs3)C[C@@H]12 [Example 175, (E)-3-(pyridin-3-yl)-N-(2-((1R,5S,6s)-3-(4-(trifluoromethyl)thiazol-2-yl)-3-azabicyclo[3.1.0]hexan-6-yl)ethyl)acrylamide] |
| 0.01 to 0.49 µM | O=C(/C=C/c1cccnc1)NCC[C@@H]1[C@H]2CN(c3ccccn3)C[C@@H]12 [Example 176, (E)-N-(2-((1R,5S,6s)-3-(pyridin-2-yl)-3-azabicyclo[3.1.0]hexan-6-yl)ethyl)-3-(pyridin-3-yl)acrylamide] |
| 0.01 to 0.49 µM | O=C(/C=C/c1cccnc1)NCC[C@@H]1[C@H]2CN(c3cnccn3)C[C@@H]12 [Example 177, (E)-N-(2-((1R,5S,6s)-3-(pyrazin-2-yl)-3-azabicyclo[3.1.0]hexan-6-yl)ethyl)-3-(pyridin-3-yl)acrylamide] |
| 0.5 to 0.99 µM | Nc1ccc(/C=C/C(=O)NCC[C@@H]2[C@H]3CN(C(=O)c4ccc(C(=O)O)cc4)C[C@@H]23)cn1 [Example 179, 4-((1R,5S,6s)-6-(2-((E)-3-(6-aminopyridin-3-yl)acrylamido)ethyl)-3-azabicyclo[3.1.0]hexane-3-carbonyl)benzoic acid] |
| 0.01 to 0.49 µM | O=C(O)c1cccc(C(=O)N2C[C@@H]3[C@@H](CCNC(=O)c4cnc5nccn5c4)[C@@H]3C2)c1 [Example 182, 3-((1R,5S,6s)-6-(2-(imidazo[1,2-a]pyrimidine-6-carboxamido)ethyl)-3-azabicyclo[3.1.0]hexane-3-carbonyl)benzoic acid] |
| 0.01 to 0.49 µM | NC(=O)c1cccc(N2C[C@@H]3[C@@H](CCNC(=O)/C=C/c4cccnc4)[C@@H]3C2)c1 [Example 183, 3-((1R,5S,6s)-6-(2-((E)-3-(pyridin-3-yl)acrylamido)ethyl)-3-azabicyclo[3.1.0]hexan-3-yl)benzamide] |
| 0.01 to 0.49 µM | CC(=O)Nc1cccc(N2C[C@@H]3[C@@H](CCNC(=O)/C=C/c4cccnc4)[C@@H]3C2)c1 [Example 184, (E)-N-(2-((1R,5S,6s)-3-(3-acetamidophenyl)-3-azabicyclo[3.1.0]hexan-6-yl)ethyl)-3-(pyridin-3-yl)acrylamide] |
| 0.01 to 0.49 µM | CS(=O)(=O)Nc1cccc(N2C[C@@H]3[C@@H](CCNC(=O)/C=C/c4cccnc4)[C@@H]3C2)c1 [Example 185, (E)-N-(2-((1R,5S,6s)-3-(3-(methylsulfonamido)phenyl)-3-azabicyclo[3.1.0]hexan-6-yl)ethyl)-3-(pyridin-3-yl)acrylamide] |
| 0.01 to 0.49 µM | NC(=O)c1ccc(N2C[C@@H]3[C@@H](CCNC(=O)/C=C/c4cccnc4)[C@@H]3C2)cc1 [Example 186, 4-((1R,5S,6s)-6-(2-((E)-3-(pyridin-3-yl)acrylamido)ethyl)-3-azabicyclo[3.1.0]hexan-3-yl)benzamide] |
| 0.01 to 0.49 µM | O=C(/C=C/c1cccnc1)NCC[C@@H]1[C@H]2CN(c3ncc(F)c(O)n3)C[C@@H]12 [Example 187, (E)-N-(2-((1R,5S,6s)-3-(5-fluoro-4-hydroxypyrimidin-2-yl)-3-azabicyclo[3.1.0]hexan-6-yl)ethyl)-3-(pyridin-3-yl)acrylamide] |
